Measurements as given in patent publication US4764515A, “Antitussive and central sedative composition of d-isomer of 3-(4-phenyl-1-piperazinyl)-1,2-propanediol” (priority 1983, dated 1988).
“Also recorded” adds a separate entry of the source. Like-named read-outs stand apart in the source and are kept apart here.

How the values were obtained:
oedema by carrageenin = test: Carrageenin oedema test in the rat (anti-inflammatory activity); format: in vivo; conditions: po, p.o. 1 h before phlogistic agent, C.L. 95%
From the text: (§1) Screening for anti-inflammatory activity has been carried out employing the established carrageenin and ovoalbumin oedema tests in the rat, according to the methods described by C. A. Winter et al., Proc. Soc. Exp. Biol. Med., 111, 544, 1962 and Turne in "Screening Methods in Pharmacology" Acad. Press N.Y., cpt. 14, p. 164, 1965, respectively.
(§2) The compounds under exam have been administered by the oral route one hour before the injection of the phlogistic agent.

5% citric acid aerosol = test: Antitussive activity in the guinea pig after exposure to 5% citric acid aerosol; format: in vivo; conditions: Cavia porcellus, po, read-out: DE50 5% Citric acid (antitussive effect)
Acute toxicity, rat = conditions: in vivo, 14 days from administration, C.L. 95%, read-out: DL50
From the text: (§3) Acute toxicity (at 14 days from the admi-
(§4) nistration) of (±) racemic dropropizine
(§5) (+) dextrorotatory isomer and (-) laevorotatory isomer

Acute toxicity, mouse = conditions: in vivo, 14 days from administration, C.L. 95%, read-out: DL50
From the text: as §3, §4, §5

[1] = tested on: electrical stimulation of the vagus nerv; test: Antitussive activity in the guinea pig after electrical stimulation of the vagus nerve; format: in vivo; conditions: Cavia porcellus, iv, intravenously 5 min before electric stimulation, C.F. 95%, read-out: DE50 Electric stimulus (antitussive effect)
Experimental: (§6) The results of the antitussive activity tests, carried out in the guinea pig after electrical stimulation of the vagus nerv and exposure for 5 minutes to a 5% citric acid aerosol according to the methods of R. M. Piekirning et al., Arzn.
(§7) The compounds under exam have been administered intravenously 5 minutes before the electric stimulation and orally 60 minutes before the citric acid aerosol.

oedema by ovoalbumin = test: Ovoalbumin oedema test in the rat (anti-inflammatory activity); format: in vivo; conditions: po, p.o. 1 h before phlogistic agent, C.L. 95%
From the text: as §1, §2

Central Nervous System [2] = test: Influence on the sleeping time induced by barbiturates in the mouse (CNS activity); format: in vivo; conditions: 30 min before secobarbital 35 mg/kg i.p., mean ± SE, controls 22.58 ± 1.14
From the text: (§8) Tests have been carried out to determine the CNS activity, by evaluating the influence on the sleeping time induced by barbiturates in the mouse, according to the method of F. M. Berger "Methods in Drug Evaluation" Proc. Int. Symp. Milan, September 1965, North Holland Pubbl. Co., and by recording the electroencephalographic and electromiographic curves in the rat with chronically implanted electrodes, calculating the time (in seconds) in the awakening and sleeping condition (including synchronized and unsynchronized sleep).
(§9) The compounds under exam have been administered orally, in the sleeping time test 30 minutes before the i.p. injection of 35 mg/kg of secobarbital, while in the electroencephalographic test at the beginning of recording.

Central Nervous System [3] = test: Electroencephalographic and electromiographic recording in the rat with chronically implanted electrodes (CNS activity); format: in vivo; conditions: mean ± SE, controls 4.86 ± 0.60
From the text: as §8, §9

[4] = tested on: antiinflammatory activity; test: Antiinflammatory activity (overall statement); format: in vivo, rat; conditions: in words
From the text: as §1, §2

antitussive activity = test: Antitussive activity (overall statement); format: in vivo, guinea pig; conditions: in words; versus racemic mixture; listed as laevorotatory isomer
Experimental: as §6, §7

[5] = 3 h, 3th hour, read-out: DE50 Oedema by carrageenin 3th hour
[6] = 6 h, 6th hour, read-out: DE50 Oedema by carrageenin 6th hour
[7] = 1st hour, read-out: DE50 Oedema by carrageenin 1st hour
[8] = guinea pig, orally 60 min before citric acid aerosol (5 min exposure), C.F. 95%
[9] = 3 h, 3th hour, read-out: DE50 Oedema by ovoalbumin 3th hour
[10] = 6 h, 6th hour, read-out: DE50 Oedema by ovoalbumin 6th hour
[11] = 1st hour, read-out: DE50 Oedema by ovoalbumin 1st hour

SMILES | ED50 (oedema by carrageenin; [5]) [mg/kg] | ED50 (oedema by carrageenin; [6]) [mg/kg] | ED50 (oedema by carrageenin; [7]) [mg/kg] | ED50 (5% citric acid aerosol; [8]) [mg/kg] | LD50 at 336 h (Acute toxicity, rat; ip) [mg/kg] | LD50 at 336 h (Acute toxicity, rat; po) [mg/kg] | LD50 at 336 h (Acute toxicity, mouse; ip) [mg/kg] | LD50 at 336 h (Acute toxicity, mouse; po) [mg/kg] | ED50 [1] [mg/kg] | ED50 (oedema by ovoalbumin; [9]) [mg/kg] | ED50 (oedema by ovoalbumin; [10]) [mg/kg] | ED50 (oedema by ovoalbumin; [11]) [mg/kg] | Duration of the sleeping time induced by barbiturates (Central Nervous System [2]; 50 mg/kg p.o.) [min] | Duration of the sleeping time induced by barbiturates (Central Nervous System [2]; 100 mg/kg p.o.) [min] | Duration of the sleeping time induced by barbiturates (Central Nervous System [2]; 200 mg/kg p.o.) [min] | Time spent in the sleeping condition (Central Nervous System [3]; 25 mg/kg p.o.) [s] | Time spent in the sleeping condition (Central Nervous System [3]; 50 mg/kg p.o.) [s] | Time spent in the sleeping condition (Central Nervous System [3]; 100 mg/kg p.o.) [s] | other results
OCC(O)CN1CCN(c2ccccc2)CC1 (racemic) [(±), 3-(4-phenyl-1-piperazinyl)-1,2-propanediol] | 77.9 | 117 | 39 | 117 | 393 | 607 | 340 | 900 | 11.7 | 28.5 | 37.1 | 23.6 | 118.83 ± 25.69 | 132.33 ± 13.16 | 134.16 ± 17.55 |  |  |  | 
OC[C@H](O)CN1CCN(c2ccccc2)CC1 [(+), d-isomer of 3-(4-phenyl-1-piperazinyl)-1,2-propanediol] | 80.5 | 69.7 | 43.9 | 141 | 363 | 721 | 319 | 872 | 23.5 |  |  |  |  |  |  | 6.18 ± 0.72 | 12.36 ± 0.9 | 28.92 ± 1.7 | 
OC[C@@H](O)CN1CCN(c2ccccc2)CC1 [(-), (-)-dropropizine] | 212 | 241 | 233 | 151 | 401 | 887 | 408 | 1290 | 13.5 | 72.2 | 121 | 55.6 | 29.5 ± 2.59 | 54.4 ± 7.36 | 128.83 ± 17.14 | 5.8 ± 0.84 | 5.7 ± 0.48 | 13.68 ± 1.80 | antiinflammatory activity [4]: unchanged antitussive and antiinflammatory activity; antitussive activity (antitussive activity): unchanged antitussive and antiinflammatory activity; also recorded: same antitussive activity as the racemic mixture
COc1ccc2c3c1O[C@H]1[C@@H](O)C=C[C@H]4[C@@H](C2)N(C)CC[C@@]341 [Codeine, codeine, reference compound] |  |  |  |  |  |  |  |  |  |  |  |  |  |  |  |  |  |  | ED50 (5% citric acid aerosol): 65.1 mg/kg
